Patent US20250120927A1, “CNDP2 MODULATORS AND METHODS FOR THEIR USE” (Metabolon Inc., priority 2023, published 2025)
Several values for one entry are separate records, joined by “and”; a condition that tells them apart may be missing. Equal entries are not always repeated. Structures can show the parent of a compound that is named as a salt.

These molecules were tested against CNDP2 (Homo sapiens (Human), UniProt Q96KP4) (assay: CNDP2 enzyme inhibition assay (Met-His hydrolysis, free histidine by o-phthaldialdehyde fluorescence), dose-response). Conditions: 50 nM purified CNDP2 (Sino Biological), 1 mM Met-His substrate, 30 minutes at 37° C.; TABLE 1.
Assay type: biochemical
Method: To identify optimal conditions for identifying novel inhibitors of CNDP2, enzyme assays were performed with varied sources of purified enzyme, concentrations of enzyme, peptide substrates, concentrations of peptide substrates and metal cofactors. […] The reaction mixture was incubated for 30 minutes at 37° C. before it was quenched with an equal volume of 1% TCA. Free histidine was quantified after derivatization with a fluorophore (o-phthaldialdehyde from Sigma-Aldrich, excitation 340 nm, emission 460 nm). The reaction was conducted in an automation-friendly format to meet future screening throughput demands. A histidine titration standard curve was also included to enable conversion of fluorescence signal to molar concentration of histidine released by the hydrolysis reaction and to ensure the linearity of the fluorescence signal vs. free histidine.
Compounds of Formula (I) disclosed herein were screened for potency in inhibiting CNDP2 enzyme activity in a dose-response experiment. Bestatin was included with each batch of test molecules as a benchmark for assay quality control.

Sequence of CNDP2 (Q96KP4 whole entry): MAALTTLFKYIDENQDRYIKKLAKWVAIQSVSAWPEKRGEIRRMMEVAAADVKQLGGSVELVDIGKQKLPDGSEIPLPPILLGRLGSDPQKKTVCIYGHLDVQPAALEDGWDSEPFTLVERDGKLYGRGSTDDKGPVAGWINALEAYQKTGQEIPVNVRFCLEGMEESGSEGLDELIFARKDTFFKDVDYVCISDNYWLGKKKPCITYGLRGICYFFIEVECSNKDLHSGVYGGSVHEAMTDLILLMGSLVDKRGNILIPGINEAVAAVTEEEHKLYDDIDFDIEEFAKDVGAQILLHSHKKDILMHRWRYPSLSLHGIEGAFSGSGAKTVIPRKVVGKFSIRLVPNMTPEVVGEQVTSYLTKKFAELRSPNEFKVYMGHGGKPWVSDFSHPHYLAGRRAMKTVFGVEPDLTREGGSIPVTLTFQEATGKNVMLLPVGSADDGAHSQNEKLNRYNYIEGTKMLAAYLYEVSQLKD

IC50 [nM] | SMILES
≥ 1000 | CC(C)C[C@H](NC(=O)[C@@H](O)[C@H](N)Cc1ccccc1)C(=O)O [bestatin, reference compound]

Same assay, conditions: 50 nM purified CNDP2 (Sino Biological), 1 mM Met-His substrate, 30 minutes at 37° C.; TABLE 2

IC50 | SMILES
< 100 nM | N[C@H](Cc1ccccc1)[C@H](O)C(=O)N[C@H](C(=O)O)c1ccc(F)c(OC(F)(F)F)c1F [Compound 114, (S)-2-((2S,3R)-3-amino-2-hydroxy-4-phenylbutanamido)-2-(2,4-difluoro-3-(trifluoromethoxy)phenyl)acetic acid hydrochloride]
≥ 1000 nM and 100 to 1000 nM | N[C@H](Cc1ccccc1)[C@H](O)C(=O)N[C@H](C(=O)O)c1cccc2c1OC(F)(F)O2 [Compound 115, (S)-2-((2S,3R)-3-amino-2-hydroxy-4-phenylbutanamido)-2-(2,2-difluorobenzo[d][1,3]dioxol-4-yl)acetic acid hydrochloride]
≥ 1000 nM | N[C@H](Cc1ccccc1)[C@H](O)C(=O)N[C@@H](Cc1ccc(OC(F)(F)F)cc1)C(=O)O [Compound 117, (S)-2-((2S,3R)-3-amino-2-hydroxy-4-phenylbutanamido)-3-(4-(trifluoromethoxy)phenyl)propanoic acid]
< 100 nM | N[C@H](Cc1ccccc1)[C@H](O)C(=O)N[C@@H](Cc1cccc(OC(F)(F)F)c1)C(=O)O [Compound 118, (S)-2-((2S,3R)-3-amino-2-hydroxy-4-phenylbutanamido)-3-(3-(trifluoromethoxy)phenyl)propanoic acid]
100 to 1000 nM | N[C@H](Cc1ccccc1)[C@H](O)C(=O)N[C@@H](Cc1ccc(OC(F)(F)F)c(F)c1)C(=O)O [Compound 119, (S)-2-((2S,3R)-3-amino-2-hydroxy-4-phenylbutanamido)-3-(3-fluoro-4-(trifluoromethoxy)phenyl)propanoic acid]
≥ 1000 nM | N[C@H](Cc1ccc(Cl)cc1)[C@H](O)C(=O)N[C@H](C(=O)O)c1cccc(OC(F)(F)F)c1 [Compound 127, (S)-2-((2S,3R)-3-amino-4-(4-chlorophenyl)-2-hydroxybutanamido)-2-(3-(trifluoromethoxy)phenyl)acetic acid]
≥ 1000 nM | N[C@H](Cc1ccc(Cl)cc1)[C@H](O)C(=O)N[C@@H](C(=O)O)c1cccc(OC(F)(F)F)c1 [Compound 128, (R)-2-((2S,3R)-3-amino-4-(4-chlorophenyl)-2-hydroxybutanamido)-2-(3-(trifluoromethoxy)phenyl)acetic acid]
≥ 1000 nM | N[C@H](Cc1ccc(Br)cc1)[C@H](O)C(=O)N[C@H](C(=O)O)c1cccc(OC(F)(F)F)c1 [Compound 129, (S)-2-((2S,3R)-3-amino-4-(4-bromophenyl)-2-hydroxybutanamido)-2-(3-(trifluoromethoxy)phenyl)acetic acid]
≥ 1000 nM | N[C@H](Cc1ccc(Br)cc1)[C@H](O)C(=O)N[C@@H](C(=O)O)c1cccc(OC(F)(F)F)c1 [Compound 130, (R)-2-((2S,3R)-3-amino-4-(4-bromophenyl)-2-hydroxybutanamido)-2-(3-(trifluoromethoxy)phenyl)acetic acid]
100 to 1000 nM | N[C@H](Cc1ccc(C(F)(F)F)cc1)[C@H](O)C(=O)N[C@@H](C(=O)O)c1cccc(OC(F)(F)F)c1 [Compound 132, (R)-2-((2S,3R)-3-amino-2-hydroxy-4-(4-(trifluoromethyl)phenyl)butanamido)-2-(3-(trifluoromethoxy)phenyl)acetic acid]
≥ 1000 nM | N[C@H](Cc1ccc(C(F)(F)F)cc1)[C@H](O)C(=O)N[C@H](C(=O)O)c1cccc(OC(F)(F)F)c1 [Compound 133]
≥ 1000 nM | N[C@H](Cc1ccc(C(F)(F)F)cc1)[C@H](O)C(=O)N[C@@H](C(=O)O)c1cccc(OC(F)(F)F)c1 [Compound 134]

Same assay, conditions: bestatin 10 microM down to 5 pM; consistent across run days

IC50 [nM] | SMILES
~2000 | CC(C)C[C@H](NC(=O)[C@@H](O)[C@H](N)Cc1ccccc1)C(=O)O [bestatin, reference compound]
